Measured values: publication PMC6212493, “Development and evaluation of a novel series of Nitroxoline-derived BET inhibitors with antitumor activity in renal cell carcinoma” (Oncogenesis, 2018)
“Also recorded” adds a separate entry of the source.

Assays:
BRD4-BD1 = biological target: T1, BRD4-BD1 (Homo sapiens, UniProt O60885); assay: ALPHA screen assay, displacement of BRD4-BD1 from acetylated H4 peptide; format: binding
T1 construct: with the first bromodomain of BRD4 (BRD4-BD1) were solved; 6xHis (N); made in house; host or cells: Escherichia coli BL21 (DE3)
Description: (§1) Amplified Luminescent Proximity Homogeneous Assay (ALPHA) screen assay was used to determine the IC50 of compounds for competitive displacement of BRD4_BD1 from the acetylated H4 peptide. As previously described, 2.5 μL compounds and 2.5 μL proteins were added into each well of 384-well plates and incubated at room temperature for 15 min. To start the reaction, 5 μL substrate peptide was added and incubated at room temperature for 5 min. Subsequently, 5 µL nickel-chelate acceptor beads (PerkinElmer) and 5 µL streptavidin-conjugate donor beads (PerkinElmer) were added. After 60 min incubation at room temperature, data were collected by EnVision (PerkinElmer) and analyzed using GraphPad Prism 5.0.

BRD4-BD2 = BRD4-BD2 (Homo sapiens, UniProt O60885); assay: ALPHA assay, displacement of BRD4-BD2 from acetylated H4 peptide; format: binding
Description: (§2) First, we compared the inhibitory activity of BDF-1253 to displace BRD4-BD1 or BRD4-BD2 domain from acetylated H4 peptide using ALPHA assay. […] An in vitro selective assay was also conducted to examine the effect of BDF-1253 at 3 μM on the other BET proteins, other BRD proteins out of BET family (SMACAR, BPTF, PCAF) as well as several epigenetic enzymes.
as §1
IC50 determination of BDF-1253 against BRD4-BD1 and BRD4-BD2 using Alpha Screen method.

BET family proteins = assay: In vitro selective assay at 3 μM, BET proteins; format: binding
Description: as §2
(§3) Determination of inhibition against BET family members, bromodomain proteins out of the BET family as well as several epi-enzymes by BDF-1253 at 3 μM.

[1] = system: non-BET BRD-containing proteins (SMACAR, BPTF, PCAF) and epigenetic enzymes; assay: In vitro selective assay at 3 μM, non-BET bromodomain proteins and epi-enzymes; format: biochemical
Description: as §2, §3

786-O cells = assay: Alamar Blue viability assay, 786-O; format: cell-based
Description: (§4) RCC cells 786-O, 769-P, A498, and ACHN were purchased from ATCC. All the cells were authenticated by STR profiling at Genesky Biopharma Technology and tested for Mycoplasma contamination. […] For the viability assay, cells were plated on 96-well plates at the density of 0.5–1 × 10^3/well. After cell attachment, various concentrations of compounds and DMSO were added, the plates were incubated for 7 days. After the addition of 10 μL Alamar Blue and incubation for 3 h at 37 °C, fluorescent signals were measured with a PE Envision reader, at the wavelength of 544 nm for excitation and 590 nm for emission. Finally, the percentages of viability were calculated by normalizing against the control.

Caki cells = assay: Alamar Blue viability assay, Caki; format: cell-based; conditions: 168 h, treatment for 7 days, read-out: IC50, cell viability
ACHN cells = assay: Alamar Blue viability assay, ACHN; format: cell-based; conditions: Homo sapiens, 168 h, treatment for 7 days, read-out: IC50, cell viability
Description: as §4

A498 cells = assay: Alamar Blue viability assay, A498; format: cell-based; conditions: Homo sapiens, 168 h; A498, treatment for 7 days; read-out: IC50, cell viability
Description: as §4

HUVEC normal cell line = assay: Viability of normal cells, HUVEC; format: cell-based; conditions: at similar concentrations as RCC cells
RCTEC normal cell line = assay: Viability of normal cells, RCTEC; format: cell-based; conditions: at similar concentrations as RCC cells
Description: as §4

786-O xenograft tumor = assay: RCC xenograft mice model (786-O); format: in vivo, nude mice; conditions: 50 mg/kg intraperitoneally daily
Description: All animal experiments were approved by IACUC (Institutional Animal Care and Use Committee) of Shanghai Institute of Materia Medica. Four to six-week-old female nude mice purchased from Silaike Laboratory Animal Ltd. were subcutaneously inoculated with 5 × 10^6 786-O cells in 100 μL PBS. All nude mice were raised under pathogen-free conditions to achieve tumor growth. Sample size of each group (n = 7) was chosen following the instruction by http://www.biomath.info. As long as the tumor sizes reached palpable stage, the mice were randomly divided into two groups (n = 7/group). One group is for compound BDF-1253 treatment trials and the other group is the control group. […] These mice were treated intraperitoneally with either diluted compound BDF-1253 of 50 mg/kg or vehicle on a daily basis. Tumor volume was evaluated every 3 days using Vernier calipers and calculated with the equation: length × width^2 × 0.5. Animals were killed when their tumors reached 2 cm^3.

[2] = system: c-Myc, Bcl-2, and CDK6 mRNA expression; assay: Real-time PCR of BET downstream genes in RCC cells; format: cell-based; conditions: relative to DMSO control, normalized to β2-microglobulin
Description: Trizol reagent (Vazyme) was used to extract total RNA of ccRCC tumor samples or cells following manufacturer’s instructions. Synthesis of complementary DNA (cDNA) was done using the HiScript® II RT SuperMix (Vazyme). StepOnePlus (Life Technologies) apparatus was applied to carry out quantitative real-time PCR (qPCR). Gene-specific data were normalized to β2-microglobulin and are calculated as relative expression compared to DMSO or control group using the ΔΔCT method.

[3] = system: c-Myc, Bcl-2, Bax, cleaved-PARP, cleaved-Caspase3 protein abundance; assay: Western blot of BET downstream and apoptosis proteins in RCC cells; format: cell-based; conditions: immunoblot
Description: Protein lysates from tissue samples were obtained using RIPA buffer supplemented with protease and phosphatase inhibitors. For the cellular samples, cells were collected following treatment with DMSO and compounds. Western blot was performed as previously described.[25] The primary antibodies were BRD2 (A302-583A, Bethyl), BRD3 (A302-368A, Bethyl), BRD4 (A301-985A, Bethyl), MYC (sc-40, Santa Cruz Biotechnology), BCL2 (ab7973, Abcam), BAX (ab32503, Abcam), cleaved PARP (Cell Signaling, #5625). The secondary antibodies were anti-rabbit IgG (Jackson, 111-035-003) or anti-mouse IgG (Jackson). HRP substrate (GE Healthcare) was used for the detection of chemical luminescence, and FUJIFILM LAS-4000 was used for image acquisition.

| Compound | IC50 (BRD4-BD1) | selectivity for BRD4-BD1 or BRD4-BD2 domain (BRD4-BD2) | effect on BET family proteins (BET family proteins) | effect on non-BET BRD-containing proteins or other epigenetic enzymes [1] | IC50 (786-O cells; Homo sapiens, 786-0, 168 h, 786-O, treatment for 7 days, read-out: IC50, cell viability) | effect on RCC cell proliferation (786-O cells; RCC 786-o cells, in words) | IC50 (Caki cells) | IC50 (ACHN cells) | IC50 (A498 cells) | inhibition of normal cell viability (HUVEC normal cell line) | inhibition of normal cell viability (RCTEC normal cell line) | c-Myc expression in tumors (immunoblotting) (786-O xenograft tumor) | tumor size (786-O xenograft tumor; 21 days, 786-O xenograft) | body weight / toxicity (786-O xenograft tumor; during dosing) | mRNA expression levels of c-Myc, Bcl-2, and CDK6 (BET target gene transcription) [2] | PRAP and Caspase3 cleavage and expression of pro-apoptotic protein Bax [3] | protein abundance of c-Myc, Bcl-2 (BRD4 downstream effectors) [3] |
| --- | --- | --- | --- | --- | --- | --- | --- | --- | --- | --- | --- | --- | --- | --- | --- | --- | --- |
| CC(=O)Nc1cc(Cn2ccnc2)c2cccc(O)c2n1 [BDF-1253] | 287 nM | no obvious selectivity | selectively inhibited BET family proteins | minimal effects | 1510 nM | inhibited the proliferation | 3570 nM | 2070 nM | 1390 nM | little inhibition | little inhibition | reduced | remarkable reduction in tumor size | no obvious loss of body weight or toxicity | inhibited expression; also recorded: dose-dependently decreased | increased PRAP and Caspase3 cleavage and elevated expression of pro-apoptotic protein Bax | reduced after the treatment, in a dose-dependent manner |
| O=[N+]([O-])c1ccc(O)c2ncccc12 [Nitroxoline] | 980 nM |  |  |  |  |  |  |  |  |  |  |  |  |  |  |  |  |
